Here are results for 1 compound from patent US20100143383A1, “OXGR1 AGONISTS FOR USE IN THERAPIES FOR METABOLIC DISORDERS” (priority 2008, published 2010).

For one assay, the system named is isolated mouse islets. Description: glucose-stimulated insulin secretion (GSIS/GDIS) in isolated mouse islets, insulin by ELISA. As to conditions: WT C57BL/6J mouse islets, 60 min, FIG. 3. The format is cell-based. As to the method:
Pancreatic islets of Langerhans were isolated from the pancreata of wild type (WT) C57BL/6J mice (Taconic Farm, N.Y.) by collagenase digestion and discontinuous Ficoll gradient separation, a modification of the original method of Lacy and Kostianovsky (Lacy P E, Kostianovsky M: Diabetes 16:35-39, 1967). The islets were cultured overnight in RPMI 1640 medium (11 mM glucose) before GDIS assay.
To measure GSIS, islets were first preincubated for 30 min in the Krebs-Ringer bicarbonate (KRB) buffer with 2 mM glucose (in petri dishes). The KRB medium contains 143.5 mM Na+, 5.8 mM K+, 2.5 mM Ca2+, 1.2 mM Mg2+, 124.1 mM Cl−, 1.2 mM PO43−, 1.2 mM […], 25 mM CO32−2 mg/ml bovine serum albumin (pH 7.4). The islets were then transferred to a 96-well plate (one islet/well) and incubated at 37° C. for 60 min in 200 μl of KRB buffer with 2 or 16 mM glucose, and other agents to be tested such as GLP-1 included as a control. (Zhou Y P, et al: J Biol Chem 278:51316-51323, 2003). Insulin was measured in aliquots of the incubation buffer by ELISA with a commercial kit (ALPCO Diagnostics, Windham, N.H.).
The compound had no effects on the basal insulin secretion at 2 mM glucose (G2).

The next assay addresses recombinant human OXGR1 (Homo sapiens, UniProt Q96P68). The following applies: Nature 429:188-193, 2004, read-out: EC50 for activation of OXGR1; cited from earlier work.
For another assay, the target named is recombinant mouse OXGR1 (Mus musculus, UniProt Q6IYF8). As to conditions: Nature 429:188-193, 2004, read-out: EC50 for activation of OXGR1; cited from earlier work.

Structures are written as SMILES.

Sequence of recombinant mouse OXGR1 (Q6IYF8 whole entry): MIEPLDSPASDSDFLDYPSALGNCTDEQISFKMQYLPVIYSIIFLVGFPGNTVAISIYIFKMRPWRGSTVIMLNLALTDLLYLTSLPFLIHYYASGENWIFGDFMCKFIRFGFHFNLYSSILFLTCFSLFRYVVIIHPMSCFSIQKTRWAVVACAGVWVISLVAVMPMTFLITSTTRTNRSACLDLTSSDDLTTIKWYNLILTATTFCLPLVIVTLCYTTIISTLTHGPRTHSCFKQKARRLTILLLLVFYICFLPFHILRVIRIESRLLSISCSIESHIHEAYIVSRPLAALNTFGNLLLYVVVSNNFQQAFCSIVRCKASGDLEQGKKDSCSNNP
Sequence of recombinant human OXGR1 (Q96P68 whole entry): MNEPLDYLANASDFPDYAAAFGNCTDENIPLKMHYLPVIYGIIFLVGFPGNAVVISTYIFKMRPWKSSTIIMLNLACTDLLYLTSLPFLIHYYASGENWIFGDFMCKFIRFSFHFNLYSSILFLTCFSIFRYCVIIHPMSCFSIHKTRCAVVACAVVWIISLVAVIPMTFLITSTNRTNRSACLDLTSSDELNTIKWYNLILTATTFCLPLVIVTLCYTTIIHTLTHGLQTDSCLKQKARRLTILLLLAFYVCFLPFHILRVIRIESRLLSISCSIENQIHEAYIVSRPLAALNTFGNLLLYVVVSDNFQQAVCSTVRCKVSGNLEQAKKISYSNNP

For the compound `O=C(O)CCC(=O)C(=O)O` [α-KG, α-ketoglutarate], in the assay on isolated mouse islets (2 mM glucose), the “effect on basal insulin secretion at 2 mM glucose (G2)” value is recorded as “no effects”. For the same compound, in the assay on isolated mouse islets (16 mM glucose), the “effect on 16 mM glucose (G16) stimulated insulin secretion” value is recorded as “dose-dependently enhanced”. Also, the concentration giving a half-maximal response (EC50) on recombinant human OXGR1 and at recombinant mouse OXGR1 was 70 µM in each case.
